Assay: solubility of the bio-liquid crystal polymer in solvents
Assay type: physicochemical
Design: key: +a: soluble only when heated; +: dissolved; −: not dissolved

- solubility (solvent DMF): +
- solubility (solvent DMSO): +
- solubility (solvent NMP): +
- solubility (solvent THF): +
- solubility (solvent acetone): +
- solubility (solvent acetonitrile): +
- solubility (solvent chloroform): −
- solubility (solvent ethanol): +
- solubility (solvent hexane): −
- solubility (solvent methanol): +
- solubility (solvent pentafluorophenol): +
- solubility (solvent toluene): −
- solubility (solvent water): ^+a
SMILES: O=C(O)/C=C/c1ccc(O)cc1 [4HCA, 4-hydroxycinnamic acid]
